molecular target: T1, human recombinant PDE10A (Homo sapiens, UniProt Q9Y233); assay: Inhibition of human recombinant PDE10A ([3H]-cAMP SPA, Method B); type: biochemical; settings: read-out: PDE10 inhibition IC50 [nM] PDE10A human
T1 construct: made in house; host or cells: SF21 insect cells (baculovirus)
Method: The gene was than inserted into a baculovirus vector, ligated with the baculovirus DNA. The enzyme-protein was expressed in SF21-cells. The enzyme was isolated from these cells by harvesting the cells by a centrifugation at 200 g to collect the cells. The cells were resuspended in 50 mM Tris-HCl/5 mM MgCl2 buffer (pH=7.4) and lysed by a sonication of the cells. The cytosolic PDE10A was obtained by a centrifugation at 48000 g for 1 h in the supernatant and stored at −70° C. PDE10 activity was determined in a one step procedure in microtiterplates. […] Nonspecific activity was tested without the enzyme. The reaction was initiated by addition of the substrate solution and was carried out at 37° C. for 30 minutes. Enzymatic activity was stopped by addition of 25 μl YSi-SPA-beads (Amersham-Pharmacia). One hour later the mixture was measured in a liquid scintillation counter for microtiterplates (Microbeta Trilux). To pipette the incubation mixture a robot Biomek (Fa. Beckman) is used. […] For determination of IC50 values the Hill-plot, 2-parameter-model, was used.

T1 sequence (Q9Y233 1-779 isoform Q9Y233-1): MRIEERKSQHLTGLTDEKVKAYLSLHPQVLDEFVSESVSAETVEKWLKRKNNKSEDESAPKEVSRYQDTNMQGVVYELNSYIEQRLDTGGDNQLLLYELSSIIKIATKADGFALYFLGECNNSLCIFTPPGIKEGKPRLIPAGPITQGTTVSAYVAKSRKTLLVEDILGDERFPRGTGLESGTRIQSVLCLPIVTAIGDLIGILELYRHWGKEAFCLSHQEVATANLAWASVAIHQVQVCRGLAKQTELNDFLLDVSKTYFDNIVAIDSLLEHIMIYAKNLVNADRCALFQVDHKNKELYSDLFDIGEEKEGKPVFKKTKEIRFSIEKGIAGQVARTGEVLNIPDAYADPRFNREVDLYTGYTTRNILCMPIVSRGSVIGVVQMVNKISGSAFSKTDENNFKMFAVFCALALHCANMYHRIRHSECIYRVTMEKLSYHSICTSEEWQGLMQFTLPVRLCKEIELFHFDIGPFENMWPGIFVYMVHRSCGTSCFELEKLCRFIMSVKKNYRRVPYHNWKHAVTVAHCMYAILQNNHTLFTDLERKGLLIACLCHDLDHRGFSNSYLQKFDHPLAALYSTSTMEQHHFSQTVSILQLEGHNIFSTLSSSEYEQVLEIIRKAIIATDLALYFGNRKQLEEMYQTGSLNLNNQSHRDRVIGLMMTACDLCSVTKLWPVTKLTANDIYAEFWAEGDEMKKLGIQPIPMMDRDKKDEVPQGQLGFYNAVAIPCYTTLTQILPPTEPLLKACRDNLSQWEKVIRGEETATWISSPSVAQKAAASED

SMILES	IC50 [nM]
COc1cc2nc(C)c3c(C)nc(-c4cnccc4C)n3c2cc1Cl [Example 128, 8-chloro-7-methoxy-3,4-dimethyl-1-(4-methylpyridin-3-yl)imidazo[1,5-a]quinoxaline]	10 to 100
Cc1noc(C)c1-c1nc(C)c2c(C)nc3ccccc3n12 [Example 100, 1-(3,5-dimethylisoxazol-4-yl)-3,4-dimethylimidazo[1,5-a]quinoxaline]	≥ 100
COc1nc(C)c2c(C)nc3c(F)cc(F)cc3n12 [Example 73, 6,8-difluoro-1-methoxy-3,4-dimethylimidazo[1,5-a]quinoxaline]	≥ 100
Cc1ccsc1-c1nc(C)c2c(C)nc3ccccc3n12 [Example 99, 3,4-dimethyl-1-(3-methyl-2-thienyl)imidazo[1,5-a]quinoxaline]	10 to 100
COc1cc2nc(C)c3c(C)nc(-c4ccccc4Cl)n3c2cc1Cl [Example 129, 8-chloro-1-(2-chlorophenyl)-7-methoxy-3,4-dimethylimidazo[1,5-a]quinoxaline]	≤ 10
COc1cc(F)c2nc(C)c3c(C)nc(-c4ccccc4C)n3c2c1 [Example 31, 6-Fluoro-8-methoxy-3,4-dimethyl-1-(2-methylphenyl)-imidazo[1,5-a]quinoxaline]	≤ 10
COc1ccncc1-c1nc(C)c2c(C)nc3ccc(F)cc3n12 [Example 140, 8-fluoro-1-(4-methoxypyridin-3-yl)-3,4-dimethylimidazo[1,5-a]quinoxaline]	≥ 100
Cc1ccccc1-c1nc(C)c2c(C)nc3ccc(C(F)(F)F)cc3n12 [Example 125, 3,4-dimethyl-1-(2-methylphenyl)-8-(trifluoromethyl)imidazo[1,5-a]quinoxaline]	10 to 100
Cc1ccccc1-c1nc(C)c2c(C)nc3c(F)cc(F)cc3n12 [Example 70, 6,8-difluoro-3,4-dimethyl-1-(2-methylphenyl)imidazo[1,5-a]quinoxaline]	≤ 10
Cc1nn(C)c(C)c1-c1nc(C)c2c(C)nc3ccc(Cl)cc3n12 [Example 69, 8-chloro-3,4-dimethyl-1-(1,3,5-trimethyl-1H-pyrazol-4-yl)imidazo[1,5-a]quinoxaline]	10 to 100
COc1ccc2nc(C)c3c(C)nc(-c4cc(Cl)ccc4C)n3c2c1 [Example 107, 1-(5-chloro-2-methylphenyl)-8-methoxy-3,4-dimethylimidazo[1,5-a]quinoxaline]	≤ 10
COc1ccc2nc(C)c3c(C)nc(-c4ccc(F)nc4C)n3c2c1 [Example 113, 1-(6-fluoro-2-methylpyridin-3-yl)-8-methoxy-3,4-dimethylimidazo[1,5-a]quinoxaline]	10 to 100

Second part, the compound after the results:

IC50 [nM]	SMILES
≤ 10	COc1ccc2nc(C)c3c(C)nc(-c4cc(C(N)=O)ccc4F)n3c2c1 [Example 114, 4-fluoro-3-(8-methoxy-3,4-dimethylimidazo[1,5-a]quinoxalin-1-yl)benzamide]
10 to 100	Cc1ccc(C(N)=O)cc1-c1nc(C)c2c(C)nc3ccc(F)cc3n12 [Example 134, 3-(8-fluoro-3,4-dimethylimidazo[1,5-a]quinoxalin-1-yl)-4-methylbenzamide]
≤ 10	Cc1nc(-c2cccc(C(N)=O)c2)n2c1c(C)nc1ccc(OC(F)(F)F)cc12 [Example 120, 3-[3,4-dimethyl-8-(trifluoromethoxy)imidazo[1,5-a]quinoxalin-1-yl]benzamide]
10 to 100	Cc1nc(-c2cc(F)cc(C(N)=O)c2)n2c1c(C)nc1ccc(F)cc12 [Example 136, 3-fluoro-5-(8-fluoro-3,4-dimethylimidazo[1,5-a]quinoxalin-1-yl)benzamide]
10 to 100	Cc1nc(-c2cc(C(N)=O)ccc2F)n2c1c(C)nc1ccccc12 [Example 102, 3-(3,4-dimethylimidazo[1,5-a]quinoxalin-1-yl)-4-fluorobenzamide]
≤ 10	Cc1ccccc1-c1nc(C)c2c(C)nc3ccc(OC(F)(F)F)cc3n12 [Example 118, 3,4-dimethyl-1-(2-methylphenyl)-8-(trifluoromethoxy)imidazo[1,5-a]quinoxaline]
